According to PubChem BioAssay AID258 (DTP/NCI, 2004):
Where “and” joins values, the source holds several entries; their conditions need not be identical. Identical values can stand only once. Inconclusive results and toxic doses are left out.

Tested on: CD2F1 mice, L1210 leukemia sc, survival T/C
Assay: NCI In Vivo Anticancer Drug Screen. Data for tumor model L1210 Leukemia (subcutaneous) in CD2F1 (CDF1) mice
Conditions: endpoint: median survival time, higher = longer survival
Summary of the method: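 T/C ratio: treated-group survival or tumor size over vehicle-control group measurement, in mice carrying transplanted tumors.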

Compound: O=P1(N(CCCl)CCCl)NCCCO1 (stereo not given)
- T/C (dose: 6.25 mg/kg/injection, schedule: Q01DX009 (ip), vehicle: saline): 103 % of control
- T/C (dose: 6.25 mg/kg/injection, schedule: Q01DX009 (sc), vehicle: saline): 107 % of control
- T/C (dose: 12.5 mg/kg/injection, schedule: Q01DX009 (ip), vehicle: saline): 106 % of control and 107 % of control
- T/C (dose: 12.5 mg/kg/injection, schedule: Q01DX009 (sc), vehicle: saline): 110 % of control
- T/C (dose: 23.0 mg/kg/injection, schedule: Q01DX Z (sc), vehicle: saline): 210 % of control
- T/C (dose: 25.0 mg/kg/injection, schedule: Q01DX009 (ip), vehicle: saline): 151 % of control
- T/C (dose: 39.0 mg/kg/injection, schedule: Q01DX Z (sc), vehicle: saline): 221 % of control
- T/C (dose: 39.0 mg/kg/injection, schedule: Q08DX003 (ip), vehicle: none): 118 % of control
- T/C (dose: 39.0 mg/kg/injection, schedule: Q08DX003 (sc), vehicle: saline): 116 % of control
- T/C (dose: 50.0 mg/kg/injection, schedule: Q01DX009 (ip), vehicle: saline): 165 % of control and 173 % of control and 177 % of control
- T/C (dose: 50.0 mg/kg/injection, schedule: Q01DX009 (sc), vehicle: saline): 191 % of control
- T/C (dose: 65.0 mg/kg/injection, schedule: Q01DX Z (sc), vehicle: saline): 236 % of control
- T/C (dose: 65.0 mg/kg/injection, schedule: Q07DX003 (ip), vehicle: saline): 123 % of control
- T/C (dose: 65.0 mg/kg/injection, schedule: Q08DX003 (ip), vehicle: none): 188 % of control
- T/C (dose: 65.0 mg/kg/injection, schedule: Q08DX003 (sc), vehicle: saline): 172 % of control
- T/C (dose: 65.0 mg/kg/injection, schedule: Q## X Z (sc), vehicle: saline): 215 % of control
- T/C (dose: 100.0 mg/kg/injection, schedule: Q01DX009 (ip), vehicle: saline): 222 % of control and 247 % of control and 89 % of control
- T/C (dose: 100.0 mg/kg/injection, schedule: Q01DX009 (sc), vehicle: saline): 259 % of control
- T/C (dose: 108.0 mg/kg/injection, schedule: Q01DX001 (sc), vehicle: saline): 164 % of control and 166 % of control and 168 % of control
- T/C (dose: 108.0 mg/kg/injection, schedule: Q01DX Z (sc), vehicle: saline): 189 % of control
- T/C (dose: 108.0 mg/kg/injection, schedule: Q07DX003 (ip), vehicle: saline): 183 % of control
- T/C (dose: 108.0 mg/kg/injection, schedule: Q07DX003 (sc), vehicle: saline): 211 % of control and 217 % of control
- T/C (dose: 108.0 mg/kg/injection, schedule: Q07DX Z (sc), vehicle: saline): 226 % of control
- T/C (dose: 108.0 mg/kg/injection, schedule: Q08DX003 (ip), vehicle: none): 241 % of control
- T/C (dose: 108.0 mg/kg/injection, schedule: Q08DX003 (sc), vehicle: saline): 227 % of control
- T/C (dose: 108.0 mg/kg/injection, schedule: Q## X Z (sc), vehicle: saline): 231 % of control
- T/C (dose: 180.0 mg/kg/injection, schedule: Q01DX001 (sc), vehicle: saline): 197 % of control and 200 % of control (2×)
- T/C (dose: 180.0 mg/kg/injection, schedule: Q01DX Z (sc), vehicle: saline): 152 % of control
- T/C (dose: 180.0 mg/kg/injection, schedule: Q07DX003 (ip), vehicle: saline): 274 % of control
- T/C (dose: 180.0 mg/kg/injection, schedule: Q07DX003 (sc), vehicle: saline): 355 % of control and 373 % of control
- T/C (dose: 180.0 mg/kg/injection, schedule: Q07DX Z (sc), vehicle: saline): 284 % of control
- T/C (dose: 180.0 mg/kg/injection, schedule: Q08DX003 (ip), vehicle: none): 288 % of control
- T/C (dose: 180.0 mg/kg/injection, schedule: Q08DX003 (sc), vehicle: saline): 283 % of control
- T/C (dose: 180.0 mg/kg/injection, schedule: Q## X Z (sc), vehicle: saline): 263 % of control
- T/C (dose: 300.0 mg/kg/injection, schedule: Q01DX001 (sc), vehicle: saline): 242 % of control and 244 % of control and 252 % of control
- T/C (dose: 300.0 mg/kg/injection, schedule: Q07DX003 (ip), vehicle: saline): 274 % of control
- T/C (dose: 300.0 mg/kg/injection, schedule: Q07DX003 (sc), vehicle: saline): 283 % of control and 296 % of control
- T/C (dose: 300.0 mg/kg/injection, schedule: Q07DX Z (sc), vehicle: saline): 231 % of control
- T/C (dose: 300.0 mg/kg/injection, schedule: Q08DX003 (ip), vehicle: none): 222 % of control
- T/C (dose: 300.0 mg/kg/injection, schedule: Q08DX003 (sc), vehicle: saline): 205 % of control
- T/C (dose: 500.0 mg/kg/injection, schedule: Q01DX001 (sc), vehicle: saline): 120 % of control and 221 % of control
- T/C (dose: 500.0 mg/kg/injection, schedule: Q## X Z (sc), vehicle: saline): 152 % of control
- T/C (dose: 833.0 mg/kg/injection, schedule: Q01DX001 (sc), vehicle: saline): 210 % of control
- T/C (dose: 833.0 mg/kg/injection, schedule: Q07DX Z (sc), vehicle: saline): 157 % of control

Compound: COC1=C(N)C(=O)c2nc(-c3nc(C(=O)O)c(C)c(-c4ccc(OC)c(OC)c4O)c3N)ccc2C1=O
- T/C (dose: 0.13 mg/kg/injection, schedule: Q01DX Z (sc), vehicle: water): 110 % of control
- T/C (dose: 0.22 mg/kg/injection, schedule: Q01DX Z (sc), vehicle: water): 110 % of control
- T/C (dose: 0.36 mg/kg/injection, schedule: Q01DX Z (sc), vehicle: water): 110 % of control
- T/C (dose: 0.6 mg/kg/injection, schedule: Q01DX Z (sc), vehicle: water): 105 % of control
- T/C (dose: 1.0 mg/kg/injection, schedule: Q01DX Z (sc), vehicle: water): 110 % of control

Compound: CC[C@H](c1ccc(O)cc1)[C@@H](CC)c1ccc(O)cc1
- T/C (dose: 130.0 mg/kg/injection, schedule: Q01DX Z (sc), vehicle: methylcellulose (MC)): 111 % of control

Compound: O=C(NO)c1cc(O)c(O)c(O)c1
- T/C (dose: 25.0 mg/kg/injection, schedule: Q01DX009 (ip), vehicle: distilled water + Tween-80): 97 % of control and 100 % of control
- T/C (dose: 50.0 mg/kg/injection, schedule: Q01DX009 (ip), vehicle: distilled water + Tween-80): 104 % of control
- T/C (dose: 100.0 mg/kg/injection, schedule: Q01DX009 (ip), vehicle: distilled water + Tween-80): 100 % of control and 102 % of control
- T/C (dose: 200.0 mg/kg/injection, schedule: Q01DX009 (ip), vehicle: distilled water + Tween-80): 124 % of control
- T/C (dose: 400.0 mg/kg/injection, schedule: Q01DX009 (ip), vehicle: distilled water + Tween-80): 90 % of control

Compound: CC1CN1CCS(=O)(=O)CCN1CC1C (stereo not given)
- T/C (dose: 0.17 mg/kg/injection, schedule: Q01DX Z (sc), vehicle: other): 100 % of control
- T/C (dose: 2.16 mg/kg/injection, schedule: Q01DX Z (sc), vehicle: other): 100 % of control
- T/C (dose: 3.6 mg/kg/injection, schedule: Q01DX Z (sc), vehicle: other): 122 % of control
- T/C (dose: 6.0 mg/kg/injection, schedule: Q01DX Z (sc), vehicle: other): 122 % of control

Compound: Cc1c(N)nc([C@H](CC(N)=O)NC[C@H](N)C(N)=O)nc1C(=O)N[C@H](C(=O)N[C@H](C)[C@@H](O)[C@H](C)C(=O)N[C@H](C(=O)NCCc1nc(-c2nc(C(=O)NCCC[S+](C)C)cs2)cs1)[C@@H](C)O)C(OC1OC(CO)C(O)C(O)C1OC1OC(CO)C(O)C(OC(N)=O)C1O)c1cnc[nH]1 (stereo not given in full)
- T/C (dose: 1.0 mg/kg/injection, schedule: Q01DX009 (ip), vehicle: saline): 100 % of control
- T/C (dose: 2.0 mg/kg/injection, schedule: Q01DX009 (ip), vehicle: saline): 100 % of control and 101 % of control and 107 % of control
- T/C (dose: 2.0 mg/kg/injection, schedule: Q01DX009 (sc), vehicle: saline): 110 % of control
- T/C (dose: 4.0 mg/kg/injection, schedule: Q01DX009 (ip), vehicle: saline): 100 % of control and 105 % of control and 109 % of control
- T/C (dose: 4.0 mg/kg/injection, schedule: Q01DX009 (sc), vehicle: saline): 102 % of control
- T/C (dose: 8.0 mg/kg/injection, schedule: Q01DX009 (ip), vehicle: saline): 100 % of control and 107 % of control and 109 % of control
- T/C (dose: 8.0 mg/kg/injection, schedule: Q01DX009 (sc), vehicle: saline): 102 % of control
- T/C (dose: 16.0 mg/kg/injection, schedule: Q01DX009 (ip), vehicle: saline): 104 % of control and 107 % of control and 112 % of control
- T/C (dose: 16.0 mg/kg/injection, schedule: Q01DX009 (sc), vehicle: saline): 106 % of control
- T/C (dose: 32.0 mg/kg/injection, schedule: Q01DX009 (ip), vehicle: saline): 102 % of control and 109 % of control and 112 % of control
- T/C (dose: 32.0 mg/kg/injection, schedule: Q01DX009 (sc), vehicle: saline): 100 % of control
- T/C (dose: 64.0 mg/kg/injection, schedule: Q01DX009 (ip), vehicle: saline): 112 % of control

Compound: CCOC(C)C(/C=N/NC(N)=S)=NNC(N)=S (stereo not given)
- T/C (dose: 65.0 mg/kg/injection, schedule: Q01DX Z (sc), vehicle: carboxymethylcellulose (CMC)): 110 % of control
- T/C (dose: 108.0 mg/kg/injection, schedule: Q01DX Z (sc), vehicle: carboxymethylcellulose (CMC)): 110 % of control
- T/C (dose: 180.0 mg/kg/injection, schedule: Q01DX Z (sc), vehicle: carboxymethylcellulose (CMC)): 120 % of control
- T/C (dose: 300.0 mg/kg/injection, schedule: Q01DX Z (sc), vehicle: carboxymethylcellulose (CMC)): 110 % of control
